According to ChEMBL document CHEMBL3046521, “Synthesis and antitumor activity of (4-hydroxyphenyl)[5-substituted alkyl/aryl)-2-thioxo-1,3,4-thiadiazol-3-yl]methanone and [(3,4-disubstituted)-1,3-thiazol-2ylidene]-4-hydroxybenzohydrazide” (2011):

What was measured:
Assay type in all cases: functional
[1] = system: NCI-H322M; assay: Cytotoxicity against Homo sapiens (human) NCI-H322M cells after 48 hr by sulforhodamine B assay
[2] = system: M14; assay: Cytotoxicity against Homo sapiens (human) M14 cells after 48 hr by sulforhodamine B assay; conditions: M14, 48 h
[3] = system: OVCAR-5; assay: Cytotoxicity against Homo sapiens (human) OVCAR5 cells after 48 hr by sulforhodamine B assay; conditions: OVCAR-5, 48 h
[4] = system: SNB-19; assay: Cytotoxicity against Homo sapiens (human) SNB19 cells after 48 hr by sulforhodamine B assay; conditions: SNB-19, 48 h
[5] = system: UO-31; assay: Cytotoxicity against Homo sapiens (human) UO31 cells after 48 hr by sulforhodamine B assay; conditions: UO-31, 48 h
[6] = system: OVCAR-4; assay: Cytotoxicity against Homo sapiens (human) OVCAR4 cells after 48 hr by sulforhodamine B assay; conditions: OVCAR-4, 48 h
[7] = system: SR; assay: Cytotoxicity against Homo sapiens (human) SR cells after 48 hr by sulforhodamine B assay
[8] = system: SK-MEL-28; assay: Cytotoxicity against Homo sapiens (human) SK-MEL-28 cells after 48 hr by sulforhodamine B assay; conditions: SK-MEL-28, 48 h
[9] = system: NCI-H460; assay: Cytotoxicity against Homo sapiens (human) NCI-H460 cells after 48 hr by sulforhodamine B assay; conditions: NCI-H460, 48 h
[10] = system: LOX IMVI; assay: Cytotoxicity against Homo sapiens (human) LOXIMVI cells after 48 hr by sulforhodamine B assay
[11] = system: SNB-75; assay: Cytotoxicity against Homo sapiens (human) SNB75 cells after 48 hr by sulforhodamine B assay; conditions: SNB-75, 48 h
[12] = Cytotoxicity against Homo sapiens (human) NCI-ADR-RES cells after 48 hr by sulforhodamine B assay
[13] = system: DU-145; assay: Cytotoxicity against Homo sapiens (human) DU145 cells after 48 hr by sulforhodamine B assay; conditions: DU-145, 48 h
[14] = system: KM12; assay: Cytotoxicity against Homo sapiens (human) KM12 cells after 48 hr by sulforhodamine B assay; conditions: KM12, 48 h
[15] = system: CAKI-1; assay: Cytotoxicity against Homo sapiens (human) Caki1 cells after 48 hr by sulforhodamine B assay; conditions: CAKI-1, 48 h
[16] = system: CCRF-CEM; assay: Cytotoxicity against Homo sapiens (human) CCRF-CEM cells after 48 hr by sulforhodamine B assay
[17] = system: MOLT-4; assay: Cytotoxicity against Homo sapiens (human) MOLT4 cells after 48 hr by sulforhodamine B assay; conditions: MOLT-4, 48 h
[18] = system: HL-60(TB); assay: Cytotoxicity against Homo sapiens (human) HL-60(TB) cells after 48 hr by sulforhodamine B assay; conditions: HL-60, 48 h
[19] = system: Hs-578T; assay: Cytotoxicity against Homo sapiens (human) Hs 578T cells after 48 hr by sulforhodamine B assay
[20] = system: SK-OV-3; assay: Cytotoxicity against Homo sapiens (human) SKOV3 cells after 48 hr by sulforhodamine B assay; conditions: SK-OV-3, 48 h
[21] = system: UACC-62; assay: Cytotoxicity against Homo sapiens (human) UACC62 cells after 48 hr by sulforhodamine B assay; conditions: UACC-62, 48 h
[22] = system: SF-295; assay: Cytotoxicity against Homo sapiens (human) SF295 cells after 48 hr by sulforhodamine B assay; conditions: SF-295, 48 h
[23] = system: SN12C; assay: Cytotoxicity against Homo sapiens (human) SN12C cells after 48 hr by sulforhodamine B assay
[24] = Cytotoxicity against Homo sapiens (human) […] cells after 48 hr by sulforhodamine B assay
[25] = system: NCI-H226; assay: Cytotoxicity against Homo sapiens (human) NCI-H226 cells after 48 hr by sulforhodamine B assay; conditions: NCI-H226, 48 h
[26] = system: EKVX; assay: Cytotoxicity against Homo sapiens (human) EKVX cells after 48 hr by sulforhodamine B assay
[27] = system: SF-268; assay: Cytotoxicity against Homo sapiens (human) SF268 cells after 48 hr by sulforhodamine B assay; conditions: SF-268, 48 h
[28] = system: COLO 205; assay: Cytotoxicity against Homo sapiens (human) COLO205 cells after 48 hr by sulforhodamine B assay; conditions: COLO 205, 48 h
[29] = system: A549; assay: Cytotoxicity against Homo sapiens (human) A549 cells after 48 hr by sulforhodamine B assay; conditions: A549, 48 h
[30] = system: OVCAR-8; assay: Cytotoxicity against Homo sapiens (human) OVCAR8 cells after 48 hr by sulforhodamine B assay; conditions: OVCAR-8, 48 h
[31] = system: SF-539; assay: Cytotoxicity against Homo sapiens (human) SF539 cells after 48 hr by sulforhodamine B assay; conditions: SF-539, 48 h

COc1ccc(-c2cs/c(=N\NC(=O)c3ccc(O)cc3)n2-c2ccc(OC)cc2OC)cc1
GI50 [1]: 22.9 µM
LC50 [1]: > 100 µM
TGI ([1]; read-out: pTGI (converted)): > 100 µM
GI50 [2]: 5.5 µM
LC50 [2]: > 100 µM
TGI ([2]; read-out: pTGI (converted)): 27.5 µM
GI50 [3]: 6.92 µM
LC50 [3]: > 100 µM
TGI ([3]; read-out: pTGI (converted)): 38 µM
GI50 [4]: 10.7 µM
LC50 [4]: > 100 µM
TGI ([4]; read-out: pTGI (converted)): > 100 µM
GI50 [5]: 4.68 µM
LC50 [5]: > 100 µM
TGI ([5]; read-out: pTGI): > 100 µM
GI50 [6]: 10.2 µM
LC50 [6]: > 100 µM
TGI ([6]; read-out: pTGI (converted)): > 100 µM
GI50 [7]: 2 µM
LC50 [7]: > 100 µM
TGI ([7]; read-out: pTGI): > 100 µM
GI50 [8]: 7.24 µM
LC50 (concentration killing 50% of cells) [8]: > 100 µM
TGI ([8]; read-out: pTGI (converted)): 53.7 µM
GI50 [9]: 3.02 µM
LC50 [9]: > 100 µM
TGI ([9]; read-out: pTGI (converted)): 13.5 µM
GI50 [10]: 3.8 µM
LC50 [10]: 85.1 µM
TGI ([10]; read-out: pTGI (converted)): 15.8 µM
GI50 [11]: 22.9 µM
LC50 [11]: > 100 µM
TGI ([11]; read-out: pTGI (converted)): > 100 µM
GI50 [12]: 2.95 µM
LC50 [12]: > 100 µM
TGI ([12]; read-out: pTGI (converted)): 8.32 µM
GI50 [13]: 8.13 µM
LC50 [13]: > 100 µM
TGI ([13]; read-out: pTGI (converted)): 40.7 µM
GI50 [14]: 2.63 µM
LC50 [14]: 87.1 µM
TGI ([14]; read-out: pTGI (converted)): 8.51 µM
GI50 [15]: 3.31 µM
LC50 [15]: > 100 µM
TGI ([15]; read-out: pTGI (converted)): 52.5 µM
GI50 [16]: 9.77 µM
LC50 [16]: > 100 µM
TGI ([16]; read-out: pTGI): > 100 µM
GI50 [17]: 1.2 µM
LC50 [17]: > 100 µM
TGI ([17]; read-out: pTGI (converted)): 23.4 µM
GI50 [18]: 3.02 µM
CC50 ([18]; read-out: pLC50 (the source's name) (converted)): > 100 µM
TGI ([18]; read-out: pTGI (converted)): 38 µM
GI50 [19]: 6.92 µM
LC50 [19]: > 100 µM
TGI ([19]; read-out: pTGI (converted)): 53.7 µM
GI50 [20]: 15.1 µM
LC50 [20]: > 100 µM
TGI ([20]; read-out: pTGI (converted)): 100 µM
GI50 [21]: 4.47 µM
LC50 [21]: 85.1 µM
TGI ([21]; read-out: pTGI (converted)): 22.9 µM
GI50 [22]: 2.82 µM
LC50 [22]: > 100 µM
TGI ([22]; read-out: pTGI (converted)): 9.77 µM
GI50 [23]: 6.61 µM
LC50 [23]: > 100 µM
TGI ([23]; read-out: pTGI (converted)): 57.5 µM
GI50 [24]: 3.8 µM
LC50 [24]: > 100 µM
TGI ([24]; read-out: pTGI (converted)): > 100 µM
GI50 [25]: 4.27 µM
LC50 [25]: > 100 µM
TGI ([25]; read-out: pTGI (converted)): > 100 µM
GI50 [26]: 6.92 µM
LC50 [26]: > 100 µM
TGI ([26]; read-out: pTGI (converted)): > 100 µM
GI50 [27]: 5.75 µM
LC50 [27]: > 100 µM
TGI ([27]; read-out: pTGI (converted)): 60.3 µM
GI50 [28]: 4.47 µM
LC50 [28]: 79.4 µM
TGI ([28]; read-out: pTGI (converted)): 20.9 µM
GI50 [29]: 6.03 µM
LC50 [29]: > 100 µM
TGI ([29]; read-out: pTGI (converted)): > 100 µM
GI50 [30]: 10.2 µM
LC50 [30]: > 100 µM
TGI ([30]; read-out: pTGI (converted)): > 100 µM
GI50 [31]: 5.13 µM
LC50 [31]: 63.1 µM
TGI ([31]; read-out: pTGI (converted)): 20.4 µM
